Data from patent publication US20100311608A1, “METHOD TO PREPARE MAGNETIC BEADS CONJUGATED WITH SMALL COMPOUNDS” (RIKEN, priority 2009, published 2010).

Tested on: THP-1 cells
Test: Amount of TNF-α released from THP-1 cells
Format: cell-based, human
Details: free body, 37° C. for 4 hours, FIG. 8
Procedure: Human monocyte leukemia-derived THP-1 cells (ATCC) were cultured in an RPMI1640 medium (Invitrogen/GIBCO). To the medium, 10% fetal bovine serum (JRH Bioscience), 1 mM sodium pyruvate (Invitrogen/GIBCO), 100 units/mL penicillin, and 100 μg/mL streptomycin (Invitrogen/GIBCO) were added.
(1) The cultured Jurkat cells, derived from human T-lymphocyte leukemia cells, were recovered (1×10^6/mL), and the thus recovered cells were then centrifuged at 1000 rpm for 10 minutes. (2) After a supernatant had been removed, the residue was washed with PBS (137 mM NaCl, 3 mM KCl, 9 mM NaHPO4, 1.5 mM KH2PO4, pH 7.4). (3) The cells were suspended in 300 μL of Binding buffer ([…] Tris-HCl, 150 mM NaCl, protease inhibitor cocktail, pH 7.5). (4) The cells were disintegrated by an ultrasonic wave treatment, and the disintegration of the cells was then observed under a microscope. […] (6) The protein concentration in the cell extract of the supernatant was measured, and the extract was then diluted with Lysis buffer (137 mM NaCl, 3 mM KCl, 9 mM NaHPO4, 1.5 mM KH2PO4, protease inhibitor cocktail, pH 7.4), resulting in a final protein concentration of 5 mg/mL. […] The amount of TNF-α contained in this supernatant was measured. […] (9) 50 μL of Stop solution was added to the resultant, and the absorption spectrum at 450 nm was then measured. […]

Lipid A was tested, and the “responsiveness in the THP cells (TNF-α release)” value was “not so high”.
